Laboratory results taken from patent US12629364B2, “Methods of treating cancers overexpressing CARM1 with EZH2 inhibitors and platinum-based antineoplastic drugs” (The Wistar Institute of Anatomy and Biology, priority 2016, dated 2026).

What was measured:
[1] = tested on: CARM1-expressing cell lines (A1847, OVCAR10, and PEO4); assay: Colony formation assay / GSK126 response curves, CARM1-expressing ovarian cancer cell lines; format: cell-based, Human
Description: FIG. 5 illustrates the results of a colony formation assay with a panel of normal and ovarian cancer cell lines in the presence of GSK126.
FIG. 7 illustrates GSK 126 response curves in a panel of normal and ovarian cancer cell lines. Error bars indicate standard error (S.E.) for n=3. *, p≤0.05.
FIG. 8 illustrates IC50 results for the panel of normal and ovarian cancer cell lines.
(§1) FIG. 33 illustrates relative growth of the indicated HOSE, FTE, and EOC cancer cell lines with high or low CARM1 expression treated with 10 μM GSK126 or vehicle in a colony formation assay as determined by NIH Image J quantification.
(§2) 500 to 5,000 cell were plated into a 24 well tissue culture plate and treated with the indicated compounds. Medium was changed every three days with appropriate drug doses for 12 days or until control wells became confluent. Colonies were washed twice with PBS and fixed with 10% methanol and 10% acetic acid in distilled water. Fixed colonies were stained with 0.005% crystal violet. Integrated density was measured using NIH ImageJ software.

EZH2 = biological target: T1, EZH2 (Homo sapiens, UniProt Q15910); assay: H3K27Me3 / EZH2 immunoblot in A1847 cells; format: cell-based; conditions: 72 hours, read-out: inhibition of the enzymatic activity of EZH2 as indicated by decrease in H3K27Me3 levels
T1 construct: endogenous in cells; host or cells: A1847 human epithelial ovarian cancer cells
Method: FIG. 32 illustrates that the EZH2 inhibitor GSK 126 decreases H3K27Me3 levels in a dose-dependent manner. A1847 cells were treated with the indicated concentrations of GSK126 for 72 hours and examined for expression of the indicated proteins by immunoblot. Expression of histone H3 and β-actin was used as a loading control.
Small molecules used in the epigenetic screen were obtained from Structural Genomics Consortium or The Wistar Institute Molecular Screening Facility. GSK126 was obtained from Active Biochem or Xcess Biosciences. Antibodies were obtained from: mouse anti-CARM1 (Cell Signaling, Cat. No: 12495, 1:1000 for immunoblotting), goat anti-BAF155 (Santa Cruz, Cat. No: SC9746, 1:1000 for immunoblotting), rabbit anti-methylated R1064 BAF155 (Millipore, Cat. No: ABE1339, 1:1000 for immunoblotting), rabbit anti-EZH2 (Cell Signaling, Cat. No: 5246, 1:1000 for immunoblotting), rabbit anti-cleaved PARP p85 (Promega, Cat. No: G7341, 1:1000 for immunoblotting), mouse anti-Ki67 (Cell Signaling, Cat. No: 9449, 1:500 for IHC), rabbit anti-cleaved caspase 3 (Cell Signaling, Cat. No: 9661, 1:1000 for immunoblotting and 1:50 for IHC), rabbit anti-H3K27Me3 (Cell Signaling, Cat. No: 9733, 1:1000 for immunoblotting and 1:100 for IHC), mouse anti-β-actin (Sigma, Cat. No: A1978, 1:20,000 for immunoblotting), rabbit anti-RNA pol II (Santa Cruz, Cat. No: sc-899). […]

HOSE or FTE cells = assay: Colony formation assay, normal HOSE and FTE cells; format: cell-based, Human; conditions: 10 μM
Method: as §1, §2

[2] = tested on: CARM1-expressing A1847 tumors; assay: Subcutaneous xenograft, CARM1-expressing A1847 cells; format: in vivo, NSG mice; conditions: 50 mg/kg daily i.p., three weeks
Method: (§3) FIGS. 73 to 75 illustrate that EZH2 inhibition suppressed the growth of CARM1-expressing ovarian tumors in vivo. FIG. 73 illustrates images of tumors dissected from control or GSK126 treated mice. CARM1-high A1847 cells were injected subcutaneously into immunocompromised NSG mice (n=5/group). Tumors were allowed to establish for one week before the mice were randomized into two different treatment groups. Mice were treated with vehicle control or GSK126 (50 mg/kg daily) for an additional three weeks. At the end of treatment, the mice were euthanized. Bar=1 cm. FIG. 74 illustrates a difference in tumor size measured as a surrogate for tumor burden from the control and GSK 126 treated mice at the indicated time point. FIG. 75 illustrates a difference in tumor weight measured as a surrogate for tumor burden from control and GSK 126-treated mice. The mice were injected with CARM1 knockout A1847 cells.
(§4) The protocols were approved by the Institutional Animal Care and Use Committee (IACUC). 5×10^6 control A1847 or A1847 CARM1 knockout cells were unilaterally injected subcutaneously into 6-8-week old female immunocompromised NSG mice (n=5 per group). […] Tumor size was measured every 3 days for 3 weeks. At end of the experiments, tumors were surgically dissected and tumor burden was calculated based on tumor weight.

[3] = tested on: tumors formed by CARM1 knockout A1847 cells; assay: Subcutaneous xenograft, CARM1 knockout A1847 cells; format: in vivo, NSG mice; conditions: 50 mg/kg daily
Method: as §3, §4

[4] = tested on: CARM1-expressing A1847 tumors; assay: Intrabursal orthotopic xenograft, CARM1-expressing A1847 cells; format: in vivo, NSG mice; conditions: 50 mg/kg daily i.p., three weeks
Method: FIG. 76 illustrates images of reproductive tracks with tumors from control or GSK126 treated mice. CARM1-high A1847 ovarian cancer cells were unilaterally injected into the ovarian bursa sac of immunocompromised mice (n=5/group). Tumors were allowed to establish for one week before the mice were randomized into two different treatment groups. Mice were treated with vehicle control or GSK126 (50 mg/kg daily) for an additional three weeks. At the end of treatment, the mice were euthanized.
FIG. 77 illustrates tumor weights for the tumors described in FIG. 76. Tumor weight was measured as a surrogate for tumor burden from the control and GSK126 treated mice.
FIG. 78 illustrates the percent survival for the animals treated in FIG. 76. After stopping treatment, the mice from the indicated groups were followed for survival. […] P-value was calculated by log-rank test.
The protocols were approved by the Institutional Animal Care and Use Committee (IACUC). For in vivo experiments, the sample size of 5 mice per group was determined based on the data shown from in vitro experiments. […] At the end of the experiments, tumors were surgically dissected and tumor burden was calculated based on tumor weight. For survival experiments, after stopping the treatment, the mice were followed for mortality or when the tumor burden reached 10% of body weight as determined by The Wistar Institute IACUC guideline.

T1 sequence (Q15910 whole entry): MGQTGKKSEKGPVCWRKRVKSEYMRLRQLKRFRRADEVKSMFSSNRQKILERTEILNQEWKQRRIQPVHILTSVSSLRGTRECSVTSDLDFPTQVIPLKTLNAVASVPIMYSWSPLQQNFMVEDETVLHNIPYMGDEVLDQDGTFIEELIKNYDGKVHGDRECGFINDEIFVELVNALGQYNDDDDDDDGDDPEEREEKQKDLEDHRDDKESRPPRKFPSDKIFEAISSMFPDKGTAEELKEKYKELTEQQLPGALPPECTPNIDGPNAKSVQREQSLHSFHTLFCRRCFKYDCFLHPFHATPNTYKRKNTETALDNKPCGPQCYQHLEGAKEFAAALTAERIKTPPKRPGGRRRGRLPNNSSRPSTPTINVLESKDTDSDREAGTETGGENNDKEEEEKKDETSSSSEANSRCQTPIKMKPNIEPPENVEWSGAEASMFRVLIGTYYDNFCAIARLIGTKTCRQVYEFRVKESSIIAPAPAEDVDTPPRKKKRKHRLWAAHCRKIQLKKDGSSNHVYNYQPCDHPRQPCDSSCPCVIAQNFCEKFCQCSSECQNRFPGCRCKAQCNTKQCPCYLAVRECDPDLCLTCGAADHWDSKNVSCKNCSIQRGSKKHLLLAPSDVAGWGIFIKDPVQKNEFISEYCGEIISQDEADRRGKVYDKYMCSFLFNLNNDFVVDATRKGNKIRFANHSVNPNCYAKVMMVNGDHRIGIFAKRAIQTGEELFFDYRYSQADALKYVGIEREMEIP
T1 sequence (Q15022 whole entry partner): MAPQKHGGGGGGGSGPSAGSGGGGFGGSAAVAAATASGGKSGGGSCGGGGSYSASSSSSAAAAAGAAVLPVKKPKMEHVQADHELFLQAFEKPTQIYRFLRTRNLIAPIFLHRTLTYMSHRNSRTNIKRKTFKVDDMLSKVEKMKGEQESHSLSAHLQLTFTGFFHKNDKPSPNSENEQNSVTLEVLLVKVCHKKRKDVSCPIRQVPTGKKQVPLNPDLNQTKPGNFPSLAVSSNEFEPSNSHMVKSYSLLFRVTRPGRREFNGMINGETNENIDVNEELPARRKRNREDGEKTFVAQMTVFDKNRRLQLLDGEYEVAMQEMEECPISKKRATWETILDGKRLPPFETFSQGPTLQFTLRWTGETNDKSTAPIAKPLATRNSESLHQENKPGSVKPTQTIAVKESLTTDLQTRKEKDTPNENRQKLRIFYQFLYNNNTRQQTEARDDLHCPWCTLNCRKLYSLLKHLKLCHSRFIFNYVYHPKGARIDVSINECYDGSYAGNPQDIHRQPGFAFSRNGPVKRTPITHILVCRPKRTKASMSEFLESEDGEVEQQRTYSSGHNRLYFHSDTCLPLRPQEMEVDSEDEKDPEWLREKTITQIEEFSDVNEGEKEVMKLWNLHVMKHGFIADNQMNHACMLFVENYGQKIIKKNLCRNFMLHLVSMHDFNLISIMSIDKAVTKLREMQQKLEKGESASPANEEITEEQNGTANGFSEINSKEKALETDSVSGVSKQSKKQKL
T1 sequence (O75530 whole entry partner): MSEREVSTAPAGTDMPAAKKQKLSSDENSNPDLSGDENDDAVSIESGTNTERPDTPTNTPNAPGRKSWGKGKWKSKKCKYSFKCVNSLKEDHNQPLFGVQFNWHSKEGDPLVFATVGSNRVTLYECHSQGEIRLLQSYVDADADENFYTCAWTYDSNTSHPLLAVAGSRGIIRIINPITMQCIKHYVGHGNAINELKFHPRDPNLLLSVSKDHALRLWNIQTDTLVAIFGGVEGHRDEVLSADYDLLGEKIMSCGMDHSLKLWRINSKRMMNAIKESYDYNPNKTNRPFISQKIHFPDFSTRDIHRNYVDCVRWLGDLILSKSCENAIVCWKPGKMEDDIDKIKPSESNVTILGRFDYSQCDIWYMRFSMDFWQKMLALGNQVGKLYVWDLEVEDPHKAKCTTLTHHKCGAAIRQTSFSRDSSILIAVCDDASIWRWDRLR

For `CC[C@H](C)n1cc(C)c2c(C(=O)NCc3c(C)cc(C)[nH]c3=O)cc(-c3ccc(N4CCNCC4)nc3)cc21` [GSK126, (S)-1-(sec-butyl)-N-((4,6-dimethyl-2-oxo-1,2-dihydropyridin-3-yl)methyl)-3-methyl-6-(6-(piperazin-1-yl)pyridin-3-yl)-1H-indole-4-carboxamide], the “relation of CARM1 expression level and cellular response” value ([1]; 10 μM, panel of EOC cell lines) was “correlation between CARM1 expression levels and cellular response”, the “IC50 values from response curves” value ([1]; CARM1-expressing cell lines (A1847, OVCAR10, PEO4) versus panel of normal and ovarian cancer cell lines, values only in FIG. 8) was “Significantly reduced IC50 values” and the inhibition at 10 µM (EZH2) was > 95%. The “growth of normal cells” value (HOSE or FTE cells) was “did not affect the growth of either HOSE or FTE cells”, the tumor growth [2] was “significantly inhibited the growth of CARM1-expressing tumors” and the tumor growth [3] was “failed to inhibit the growth”. For the same compound, the “tumor growth (tumor weight)” value [4] was “significantly inhibited”.
